Measured values taken from ChEMBL document CHEMBL1201862, “PubChem BioAssay data set” (2004).
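Five concentrations, 48 hours, 96-well plates. The concentration for 50% growth inhibition is given as GI50.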 Active and inactive are the calls of the source. No stated cut-off is given here; in the data, active = GI50 up to about 1.1 µM and inactive = higher.

What was measured:
Assay in all cases: growth of human tumour cells (NCI), 48 h
[1] = system: HCC 2998
[2] = system: KM12
[3] = system: UACC-62
[4] = system: IGROV-1
[5] = system: SN12C
[6] = system: SK-OV-3
[7] = system: SK-MEL-5
[8] = system: NCI-H460
[9] = system: OVCAR-3
[10] = system: OVCAR-4
[11] = system: SNB-19
[12] = system: OVCAR-5
[13] = system: EKVX
[14] = system: HCT-116
[15] = system: RXF 393
[16] = system: SR

Measured: GI50

COc1ccc2c(c1)[n+]([O-])c(-c1ccccc1)c(N)[n+]2[O-]
inactive: [1] 54 µM | [2] 63.4 µM | [3] 30.3 µM | [4] 43.4 µM | [5] 51.8 µM | [6] > 100 µM | [7] 18 µM | [8] 35.6 µM | [9] 39.8 µM | [10] 47.3 µM | [11] 42.5 µM | [12] 94 µM | [13] 43.8 µM

CN(C(=N)c1ccccc1)c1ccccc1
inactive: [1] > 100 µM | [2] > 100 µM | [3] > 100 µM | [4] > 100 µM | [5] > 100 µM | [6] > 100 µM | [7] > 100 µM | [9] > 100 µM | [14] > 100 µM | [10] > 100 µM | [11] > 100 µM | [13] > 100 µM

Cc1ccc(-c2c(N)[n+]([O-])c3ccccc3[n+]2[O-])cc1
inactive: [1] 15.8 µM | [2] 11.9 µM | [3] 7.18 µM | [4] 14.9 µM | [5] 10.6 µM | [6] 21.2 µM | [7] 11.4 µM | [8] 18.7 µM | [9] 16 µM | [10] 17.3 µM | [11] 12.7 µM | [12] 17.9 µM | [13] 23.4 µM

CCOC(=O)C1(c2ccccc2)CCC(=O)CC1
inactive: [1] > 100 µM | [2] > 100 µM | [3] > 100 µM | [15] > 100 µM | [4] > 100 µM | [5] > 100 µM | [6] > 100 µM | [7] > 100 µM | [8] > 100 µM | [9] > 100 µM | [14] > 100 µM | [10] > 100 µM | [11] > 100 µM | [12] > 100 µM | [13] > 100 µM

COc1cccc2c1OC1Sc3ccccc3-c3nn(-c4ccccc4)c-2c31 (stereo not drawn)
inactive: [1] > 100 µM | [2] > 100 µM | [15] > 100 µM | [4] > 100 µM | [6] > 100 µM | [8] > 100 µM | [9] > 100 µM | [14] > 100 µM | [12] > 100 µM | [13] > 100 µM

CN(C)CCNC(=O)c1cccc2[nH]c(-c3ccccc3)nc12
inactive: [1] 15.3 µM | [2] 22.4 µM | [3] 18.5 µM | [15] 17.2 µM | [4] 21.7 µM | [5] 16.7 µM | [6] 17.3 µM | [7] 15.1 µM | [8] 15.4 µM | [9] 21.6 µM | [14] 9.73 µM | [10] 28.4 µM | [11] 32.5 µM | [12] 15.7 µM | [13] 23.9 µM

CC1=C(c2cc(C(=O)Nc3nccs3)nc(NC#N)n2)Sc2ccccc2N1
inactive: [2] > 100 µM | [3] > 100 µM | [16] > 100 µM | [4] > 100 µM | [5] > 100 µM | [7] > 100 µM | [8] > 100 µM | [9] > 100 µM | [14] > 100 µM | [10] > 100 µM | [11] > 100 µM | [12] > 100 µM | [13] > 100 µM

CC1(c2ccccc2)CC(c2ccccc2)=NO1 (stereo not drawn)
inactive: [1] > 100 µM | [2] > 100 µM | [3] > 100 µM | [16] > 100 µM | [4] > 100 µM | [5] > 100 µM | [6] > 100 µM | [7] > 100 µM | [8] > 100 µM | [9] > 100 µM | [14] > 100 µM | [10] > 100 µM | [11] > 100 µM | [12] > 100 µM | [13] > 100 µM

COC(=O)CC(CC(=O)C(=O)OC)C(=O)OC (stereo not drawn)
inactive: [1] > 100 µM | [2] > 100 µM | [3] > 100 µM | [15] > 100 µM | [4] > 100 µM | [5] > 100 µM | [6] > 100 µM | [7] > 100 µM | [8] > 100 µM | [9] > 100 µM | [14] > 100 µM | [11] > 100 µM | [12] > 100 µM | [13] > 100 µM

C/C(=N\NC(=O)c1ccccc1O)c1c(O)cc(C)oc1=O
inactive: [1] 92 µM | [2] > 100 µM | [3] 25.6 µM | [15] 40.6 µM | [4] 34.2 µM | [5] > 100 µM | [6] 17.4 µM | [7] 43.8 µM | [8] 43.6 µM | [9] 41.2 µM | [14] 49.4 µM | [10] 71 µM | [11] 63.5 µM | [12] 73.3 µM | [13] 29.9 µM

N#C/C(=C\c1ccc(O)c(O)c1)C(N)=S [TYRPHOSTIN 47]
inactive: [1] > 73.5 µM | [2] 68.2 µM | [3] 81.5 µM | [16] 36.1 µM | [4] > 100 µM | [5] > 100 µM | [6] > 100 µM | [7] 71.1 µM | [8] 45.9 µM | [9] 38.7 µM | [14] 50.2 µM | [10] > 100 µM | [11] > 70.3 µM | [12] > 100 µM | [13] > 100 µM

COC(=O)C1=CC2OC13CC1CCC3(C2=O)C1(C)C (stereo not drawn)
inactive: [1] 14.5 µM | [2] 16.5 µM | [3] 16.3 µM | [15] 12 µM | [4] 16.7 µM | [5] 12.7 µM | [6] 21 µM | [7] 15.8 µM | [8] 34.1 µM | [9] 5.89 µM | [14] 11.4 µM | [10] 10.9 µM | [11] 21.6 µM | [12] 19 µM | [13] > 10 µM

c1ccc(CCCC2Sc3cccc4cccc(c34)S2)cc1
inactive: [1] 88.7 µM | [2] > 100 µM | [3] > 100 µM | [15] > 100 µM | [4] > 100 µM | [5] > 100 µM | [6] > 100 µM | [7] 78.3 µM | [8] > 100 µM | [9] > 100 µM | [14] > 100 µM | [10] > 100 µM | [11] > 100 µM | [12] > 100 µM | [13] > 100 µM

COC(=O)C1=CC2C(=O)OC1C1C(=O)NC(=O)C21 (stereo not drawn)
inactive: [1] > 100 µM | [2] > 100 µM | [3] > 100 µM | [16] > 100 µM | [4] > 100 µM | [5] > 100 µM | [6] > 100 µM | [7] > 100 µM | [8] > 100 µM | [9] > 100 µM | [14] > 100 µM | [10] 60.4 µM | [11] > 100 µM
